Test results: paper PMC7031696 (Cell chemical biology, 2019)
Where two headings read alike, the source gives them in different places.

Tests used:
[1] = tested on: 3D7-MR4 trophozoite parasite-infected RBCs; assay: Metabolomic profiling (hydrophilic metabolite changes, UHPLC-MS); type: cell-based, Plasmodium falciparum
[2] = tested on: Plasmodium falciparum 3D7-A10 parasites; assay: Stage specificity assay (8-h exposure of synchronized stages, IC50^8h); type: cell-based; settings: for IC50: Plasmodium falciparum
[3] = tested on: asynchronous 3D7-A10 parasite cultures; assay: Standard 72-h exposure asexual blood stage susceptibility assay (IC50^72h); type: cell-based, Plasmodium falciparum; settings: Plasmodium falciparum, 3D7, 72 h, read-out: Overall (72hr assay) Mean IC50 (IC50^72h)

## Cc1ccc(Oc2ncccc2C(=O)Nc2cccc3cccnc23)c(C)c1 [MMV020746]
[1]; 10 × IC50^72h, 2.5 hr, trophozoites
  peptide levels (hemoglobin catabolism signature): decreased peptide levels
[1]; metabolite 3-phosphoglycerate, log2 fold change
  Log2(fold changes) 3-phosphoglycerate: -0.8487
[1]; metabolite 4-Pyridoxic acid, log2 fold change
  Log2(fold changes) 4-Pyridoxic acid: -0.4495
[1]; metabolite 4-aminobutyrate, log2 fold change
  Log2(fold changes) 4-aminobutyrate: -0.1236
[1]; metabolite 4-phosphopantetheine, log2 fold change
  Log2(fold changes) 4-phosphopantetheine: 0.0000
[1]; metabolite 4-phosphopantothenate, log2 fold change
  Log2(fold changes) 4-phosphopantothenate: -0.7722
[1]; metabolite 5-aminopentanoic acid, log2 fold change
  Log2(fold changes) 5-aminopentanoic acid: 0.0000
[1]; metabolite 5-methyl-THF, log2 fold change
  Log2(fold changes) 5-methyl-THF: 0.0000
[1]; metabolite 5-phosphoribosyl-1-pyrophosphate, log2 fold change
  Log2(fold changes) 5-phosphoribosyl-1-pyrophosphate: 0.0000
[1]; metabolite 6-phospho-D-gluconate, log2 fold change
  Log2(fold changes) 6-phospho-D-gluconate: -0.3888
[1]; metabolite HVDD
  Log2(fold change) HVDD: -4.2936
[1]; metabolite Hydroxyisocaproic acid
  Log2(fold change) Hydroxyisocaproic acid: 0.0000
[1]; metabolite IDP
  Log2(fold change) IDP: 0.0000
[1]; metabolite IMP
  Log2(fold change) IMP: -0.0604
[1]; metabolite Inositol
  Log2(fold change) Inositol: 0.0000
[1]; metabolite Isopentyl-PP
  Log2(fold change) Isopentyl-PP: -0.6932
[1]; metabolite L-arginino-succinate
  Log2(fold change) L-arginino-succinate: -0.2156
[1]; metabolite LD
  Log2(fold change) LD: 0.1860
[1]; metabolite Myristoyl/tetradecanoyl-CoA
  Log2(fold change) Myristoyl/tetradecanoyl-CoA: 0.0000
[1]; metabolite N-Acetyl-L-alanine
  Log2(fold change) N-Acetyl-L-alanine: 0.0990
[1]; metabolite N-acetyl-L-ornithine
  Log2(fold change) N-acetyl-L-ornithine: -1.5863
[1]; metabolite N-acetyl-glucosamine-1/6-phosphate
  Log2(fold change) N-acetyl-glucosamine-1/6-phosphate: 0.3354
[1]; metabolite N-acetyl-glutamate
  Log2(fold change) N-acetyl-glutamate: -0.0291
[1]; metabolite N-acetyl-glutamine
  Log2(fold change) N-acetyl-glutamine: 0.3326
[1]; metabolite N-carbamoyl-L-aspartate
  Log2(fold change) N-carbamoyl-L-aspartate: -0.0111
[1]; metabolite NAD+
  Log2(fold change) NAD+: -0.2290
[1]; metabolite NADH
  Log2(fold change) NADH: 3.2383
[1]; metabolite NADP+
  Log2(fold change) NADP+: -0.2621
[1]; metabolite NADPH
  Log2(fold change) NADPH: 2.9387
[1]; metabolite O-acetyl-L-serine
  Log2(fold change) O-acetyl-L-serine: -0.1299
[1]; metabolite Octoluse 8/1P
  Log2(fold change) Octoluse 8/1P: -0.0750
[1]; metabolite Octoluse Bisphosphate
  Log2(fold change) Octoluse Bisphosphate: 0.1477
[1]; metabolite PD
  Log2(fold change) PD: -2.6591
[1]; metabolite PE
  Log2(fold change) PE: -2.3902
[1]; metabolite PEE
  Log2(fold change) PEE: -2.3026
[1]; metabolite PEEK
  Log2(fold change) PEEK: -2.5604
[1]; metabolite PVNF
  Log2(fold change) PVNF: -4.8059
[1]; metabolite Pyroglutamic acid
  Log2(fold change) Pyroglutamic acid: 0.1917
[1]; metabolite Pyrophosphate
  Log2(fold change) Pyrophosphate: 0.0000
[1]; metabolite Ribose-5-phosphate
  Log2(fold change) Ribose-5-phosphate: -0.7820
[1]; metabolite S-adenosyl-L-homocysteine
  Log2(fold change) S-adenosyl-L-homocysteine: -0.0800
[1]; metabolite S-adenosyl-L-methioninamine
  Log2(fold change) S-adenosyl-L-methioninamine: -2.2715
[1]; metabolite S-adenosyl-L-methionine
  Log2(fold change) S-adenosyl-L-methionine: 0.0000
[1]; metabolite S-methyl-5'-thioadenosine
  Log2(fold change) S-methyl-5'-thioadenosine: 0.5248
[1]; metabolite SD
  Log2(fold change) SD: -1.2335
[1]; metabolite SDL
  Log2(fold change) SDL: 0.0000
[1]; metabolite SID
  Log2(fold change) SID: -1.9821
[1]; metabolite Sedoheptulose bisphosphate
  Log2(fold change) Sedoheptulose bisphosphate: -0.9337
[1]; metabolite Thiamine pyrophosphate
  Log2(fold change) Thiamine pyrophosphate: -0.1414
[1]; metabolite UDP-D-glucose, log2 fold change
  Log2(fold changes) UDP-D-glucose: 0.0347
[1]; metabolite UDP-D-glucuronate, log2 fold change
  Log2(fold changes) UDP-D-glucuronate: -0.1265
[1]; metabolite UDP-N-acetyl-glucosamine, log2 fold change
  Log2(fold changes) UDP-N-acetyl-glucosamine: -0.1353
[1]; metabolite UDP, log2 fold change
  Log2(fold changes) UDP: -0.5234
[1]; metabolite UMP, log2 fold change
  Log2(fold changes) UMP: 0.1786
[1]; metabolite UTP, log2 fold change
  Log2(fold changes) UTP: 0.0000
[1]; metabolite hydroxyphenylpyruvate
  Log2(fold change) hydroxyphenylpyruvate: 0.0000
[1]; metabolite hydroxyproline/Aminolevulinate
  Log2(fold change) hydroxyproline/Aminolevulinate: -0.2593
[1]; metabolite hypoxanthine
  Log2(fold change) hypoxanthine: 0.0518
[1]; metabolite indole
  Log2(fold change) indole: 0.0000
[1]; metabolite inosine
  Log2(fold change) inosine: -0.1327
[1]; metabolite isoleucine
  Log2(fold change) isoleucine: 0.0000
[1]; metabolite lactate
  Log2(fold change) lactate: -0.6990
[1]; metabolite leucine
  Log2(fold change) leucine: 0.0000
[1]; metabolite lysine
  Log2(fold change) lysine: -2.2531
[1]; metabolite malate
  Log2(fold change) malate: -0.6987
[1]; metabolite maleic acid
  Log2(fold change) maleic acid: -0.7709
[1]; metabolite methionine
  Log2(fold change) methionine: -0.0286
[1]; metabolite myo-inositol
  Log2(fold change) myo-inositol: -0.7655
[1]; metabolite nicotinamide mononucleotide
  Log2(fold change) nicotinamide mononucleotide: -0.5765
[1]; metabolite nicotinate
  Log2(fold change) nicotinate: -0.1328
[1]; metabolite ornithine
  Log2(fold change) ornithine: -0.3857
[1]; metabolite orotate
  Log2(fold change) orotate: -0.1387
[1]; metabolite orotidine-5'-phosphate
  Log2(fold change) orotidine-5'-phosphate: 0.0782
[1]; metabolite oxaloacetate
  Log2(fold change) oxaloacetate: -0.6442
[1]; metabolite p-aminobenzoate
  Log2(fold change) p-aminobenzoate: 0.0000
[1]; metabolite p-hydroxybenzoate
  Log2(fold change) p-hydroxybenzoate: 0.0000
[1]; metabolite pantothenate
  Log2(fold change) pantothenate: -0.1112
[1]; metabolite phenylalanine
  Log2(fold change) phenylalanine: -0.4829
[1]; metabolite phenylpyruvate
  Log2(fold change) phenylpyruvate: 0.0000
[1]; metabolite phosphoenolpyruvate
  Log2(fold change) phosphoenolpyruvate: -0.5858
[1]; metabolite prephenate
  Log2(fold change) prephenate: -0.3824
[1]; metabolite proline
  Log2(fold change) proline: -0.5702
[1]; metabolite pyridoxine
  Log2(fold change) pyridoxine: -0.1642
[1]; metabolite pyruvate
  Log2(fold change) pyruvate: -1.5001
[1]; metabolite riboflavin
  Log2(fold change) riboflavin: 0.4413
[1]; metabolite ribose
  Log2(fold change) ribose: -0.0174
[1]; metabolite ribose-phosphate
  Log2(fold change) ribose-phosphate: -1.1321
[1]; metabolite ribulose-5-phosphate
  Log2(fold change) ribulose-5-phosphate: -0.7375
[1]; metabolite serine
  Log2(fold change) serine: -0.1379
[1]; metabolite sn-glycerol-3-phosphate
  Log2(fold change) sn-glycerol-3-phosphate: 0.0529
[1]; metabolite succinate/Methylmalonic acid
  Log2(fold change) succinate/Methylmalonic acid: -0.5504
[1]; metabolite succinyl-CoA/methylmalonyl-CoA
  Log2(fold change) succinyl-CoA/methylmalonyl-CoA: 0.0000
[1]; metabolite taurine
  Log2(fold change) taurine: 0.3831
[1]; metabolite thiamine
  Log2(fold change) thiamine: -0.5873
[1]; metabolite threonine/homoserine
  Log2(fold change) threonine/homoserine: -0.5084
[1]; metabolite thymidine
  Log2(fold change) thymidine: 0.0000
[1]; metabolite thymine, log2 fold change
  Log2(fold changes) thymine: 0.0000
[1]; metabolite trehalose-6-Phosphate, log2 fold change
  Log2(fold changes) trehalose-6-Phosphate: 0.0000
[1]; metabolite tryptophan, log2 fold change
  Log2(fold changes) tryptophan: -0.7516
[1]; metabolite tyrosine, log2 fold change
  Log2(fold changes) tyrosine: -0.2515
[1]; metabolite uridine, log2 fold change
  Log2(fold changes) uridine: 0.0000
[2]; 3D7-A10
  Ratio lowest IC50 8hr/IC50 72hr: 221.5
[2]; 3D7, read-out: Early rings IC50 (IC50^8h), 8-h exposure 0–8 hr, bound given in μM
  IC50: > 25 µM
[2]; 3D7, read-out: Early trophozoites Mean IC50 (IC50^8h), 8-h exposure 16–24 hr, 3D7-A10, survival at 60 h
  IC50: 12.6 µM
[2]; 3D7, read-out: Late rings IC50 (IC50^8h), 8-h exposure 8–16 hr, bound given in μM
  IC50: > 25 µM
[2]; 3D7, read-out: Late trophozoites IC50 (IC50^8h), 8-h exposure 24–32 hr, bound given in μM
  IC50: > 25 µM
[2]; 3D7, read-out: Schizonts IC50 (IC50^8h), 8-h exposure 32–40 hr, bound given in μM
  IC50: > 25 µM
[2]; most susceptible stages
  IC50^8h relative to IC50^72h value: > 28 fold
[3]
  IC50: 0.0568 µM
